Source: patent US5650428A, “Arylsulfonamide derivative and pharmaceutical compositions and use thereof” (NKK Corporation, priority 1993, dated 1997)
Structures can show the parent of a compound that is named as a salt.

Experiments:
[1] = tested on: rat platelet; test: Inhibitory activity of aggregation in rat platelet; assay type: cell-based; details: rat platelet rich plasma, arachidonic acid (final concentration 0.5 mM) as inducer; read-out: C: Inhibitory activity of aggregation in rat platelet (IC50; μM)
Protocol: (3) Inhibitory Activity of Aggregation in Rat Platelet The abdomen of etherized rat was open, and blood was taken from the abdominal arteries, using a sodium citrate solution (final concentration was 0.38%). The blood was centrifuged at 1100 rpm for 10 minutes, and the supernatent was separated as the platelet rich plasma. The plasma was further centrifuged at 2000 rpm for 15 minutes to obtain the supernatent as a platelet poor plasma. The platelet rich plasma (280 μl) was placed in a measuring cuvette and preincubated for 1 minute at 37° C. Then, a sample solution (10 μl) was added. After 2 minutes, an arachidonic acid solution (final concentration=0.5 mM) (10 μl) was added as an inducer. The change in light transmission was recorded for 5 minutes.

[2] = target: T1, thromboxane A2 (TxA2) receptor (Cavia porcellus, UniProt A0A286Y4I8); test: TxA2 antagonist action by binding assay; details: washed guinea pig platelets, 1 nM [3H]-SQ29,548, 45 minutes at 25° C.
T1 construct: to obtain washed platelets; from tissue; host or cells: washed platelets of male Hartley guinea pigs
T1 sequence (A0A286Y4I8 1-347): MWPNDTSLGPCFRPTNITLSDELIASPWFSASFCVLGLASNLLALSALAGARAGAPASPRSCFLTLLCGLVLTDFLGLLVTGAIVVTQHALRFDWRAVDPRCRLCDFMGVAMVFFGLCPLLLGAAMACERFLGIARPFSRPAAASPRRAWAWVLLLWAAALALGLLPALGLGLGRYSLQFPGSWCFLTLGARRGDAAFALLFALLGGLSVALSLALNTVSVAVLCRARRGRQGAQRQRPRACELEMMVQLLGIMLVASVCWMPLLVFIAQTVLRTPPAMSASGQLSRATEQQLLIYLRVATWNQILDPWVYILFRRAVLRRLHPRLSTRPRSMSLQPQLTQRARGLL
Protocol: (1) TxA2 antagonist action by binding assay Guinea pigs (Hartley; male; body weight=approximately 500 g) were anesthetized with ether, and the blood was collected into sodium citrate (final concentration=0.38%). The preparation of platelets was carried out at room temperature. The platelet rich plasma was obtained by centrifugation at 980 rpm for 10 minutes. One tenth (1/10) amount of 77 mM-EDTA-Na (pH 7.4) was added to the platelet rich plasma, and the mixture was centrifuged for 10 minutes at 3000 rpm. The suspension was again centrifuged at 3000 rpm for 10 minutes. The precipitate was further resuspended in a suspension buffer (2) shown in Table 2 to obtain washed platelets. The number of platelets was counted by an automatic blood cell counter (Sysmex Microcellcounter F-800) and the sample was diluted with the suspension buffer to 4×10^8 cells/ml. The platelets, sample solution and labeled compounds were placed into plastic tubes in amounts (volumes) shown in the following Table 3, incubated for 45 minutes at 25° C., and then the mixture was filtered using a cell harvester (Brandel cell harvester M-24R) by a glass fiber filter (Whatman GF/B). After the filter was sufficiently dried, the scintillation was counted by a scintillation counter (Beckman LS5000TD). IC50 was calculated from (binding)/(control binding) ratio in the presence of an antagonist. [table 3: the next 10 blocks are its lines as printed, fixed-width]

| SMILES | IC50 [1] | IC50 [2] |
| --- | --- | --- |
| O=C(O)Cc1cccc(NC(=O)C(COC2CCCCO2)NS(=O)(=O)c2ccc(Cl)cc2)c1 (racemic) [Example 45, (RS)-N-(3-(carboxymethyl)phenyl)-2-(4-chlorobenzenesulfonylamino)-3-(tetrahydropyran-2-yloxy)propanamide] | 3.6 µM | 0.42 µM |
| O=C(O)CCc1cccc(NC(=O)C(COC2CCCCO2)NS(=O)(=O)c2ccc(Cl)cc2)c1 (racemic) [Example 46, (RS)-N-(3-(carboxyethyl)phenyl)-2-(4-chlorobenzenesulfonylamino)-3-(tetrahydropyran-2-yloxy)propanamide] | 1.7 µM | 0.11 µM |
| O=C(O)CCCCCNC(=O)C(COC1CCCCO1)NS(=O)(=O)c1ccc(Cl)cc1 (racemic) [Example 49, (RS)-N-(5-carboxypentyl)-2-(4-chlorobenzenesulfonylamino)-3-(tetrahydropyran-2-yloxy)propanamide] | 0.4 µM | 1.7 µM |
| O=C(O)CCCCCCNC(=O)C(COC1CCCCO1)NS(=O)(=O)c1ccc(Cl)cc1 (racemic) [Example 50, (RS)-N-(6-carboxyhexyl)-2-(4-chlorobenzenesulfonylamino)-3-(tetrahydropyran-2-yloxy)propanamide] | 1.75 µM | 1 µM |
| O=C(O)Cc1ccc(NC(=O)C(COC2CCCCO2)NS(=O)(=O)c2ccccc2)cc1 (racemic) [Example 52, (RS)-2-(benzenesulfonylamino)-N-(4-(carboxymethyl)phenyl)-3-(tetrahydropyran-2-yloxy) propanamide] | 1.7 µM | 2.2 µM |
| O=C(O)Cc1ccc(NC(=O)C(COC2CCCCO2)NS(=O)(=O)c2ccc(F)cc2)cc1 (racemic) [Example 53, (RS)-N-(4-(carboxymethyl)phenyl)-2-(4-fluorobenzenesulfonylamino)-3-(tetrahydropyran-2-yloxy)propanamide] | 0.53 µM | 0.2 µM |
| Cc1ccc(S(=O)(=O)NC(COC2CCCCO2)C(=O)Nc2ccc(CC(=O)O)cc2)cc1 (racemic) [Example 56, (RS)-N-(4-(carboxymethyl)phenyl)-2-(4-methylbenzenesulfonylamino)-3-(tetrahydropyran-2-yloxy)propanamide] | 1.7 µM | 0.3 µM |
| COc1ccc(S(=O)(=O)NC(COC2CCCCO2)C(=O)Nc2ccc(CC(=O)O)cc2)cc1 (racemic) [Example 57, (RS)-N-(4-(carboxymethyl)phenyl)-2-(4-methoxybenzenesulfonylamino)-3-(tetrahydropyran-2-yloxy)propanamide] | 0.53 µM | 0.15 µM |
| O=C(O)Cc1ccc(NC(=O)C(COC2CCCCO2)NS(=O)(=O)c2ccc(Cl)c([N+](=O)[O-])c2)cc1 (racemic) [Example 58, (RS)-N-(4-(carboxymethyl)phenyl)-2-(4-chloro-3-nitrobenzenesulfonylamino)-3-(tetrahydropyran-2-yloxy)propanamide] | 5.3 µM | 1.4 µM |
| O=C(O)Cc1ccc(NC(=O)C(COC2CCCCO2)NS(=O)(=O)c2ccc3ccccc3c2)cc1 (racemic) [Example 60, (RS)-N-(4-(carboxymethyl)phenyl)-N-(4-(carboxymethyl)phenyl)-2-(2-naphthalenesulfonylamino)-3-(tetrahydropyran-2-yloxy)propanamide] | 5.3 µM | 0.23 µM |
| O=C(O)Cc1ccc(NC(=O)C(Cn2ccnc2)NS(=O)(=O)c2ccc(Cl)cc2)cc1 (racemic) [Example 94, (RS)-N-(4-(carboxymethyl)phenyl)-2-(4-chlorobenzenesulfonylamino)-3-(1H-imidazol-1-yl)propanamide hydrochloride] | 1.7 µM | 0.86 µM |
| O=C(O)CCc1ccc(NC(=O)C(Cn2ccnc2)NS(=O)(=O)c2ccc(Cl)cc2)cc1 (racemic) [Example 95, (RS)-N-(4-(2-carboxyethyl)phenyl)-2-(4-chlorobenzenesulfonylamino)-3-(1H-imidazol-1-yl)propanamide hydrochloride] | 1.79 µM | 1.5 µM |
| O=C(O)CCCCCCNC(=O)C(Cn1ccnc1)NS(=O)(=O)c1ccc(Cl)cc1 (racemic) [Example 101, (RS)-N-(6-carboxyhexyl)-2-(4-chlorobenzenesulfonylamino)-3-(1H-imidazol-1-yl)propanamide hydrochloride] | 1.7 µM | 0.41 µM |
| O=C(O)Cc1ccc(NC(=O)C(Cn2ccnc2)NS(=O)(=O)c2ccc(F)cc2)cc1 (racemic) [Example 103, (RS)-N-(4-(carboxymethyl)phenyl)-2-(4-fluorobenzenesulfonylamino)-3-(1H-imidazol-1-yl)propanamide] | 1.7 µM | 1.9 µM |
| O=C(O)Cc1ccc(NC(=O)C(Cn2ccnc2)NS(=O)(=O)c2ccc(Br)cc2)cc1 (racemic) [Example 104, (RS)-2-(4-bromobenzenesulfonylamino)-N-(4-(carboxymethyl)phenyl)-3-(1H-imidazol-1-yl)propanamide] | 1.7 µM | 0.18 µM |
| O=C(O)Cc1ccc(NC(=O)C(COc2cccnc2)NS(=O)(=O)c2ccc(Cl)cc2)cc1 (racemic) [Example 116, (RS)-N-(4-(carboxymethyl)phenyl)-2-(4-chlorobenzenesulfonylamino)-3-(pyridin-3-yloxy)propanamide hydrochloride] | 0.95 µM | 0.5 µM |
| O=C(O)Cc1ccc(NC(=O)C(COc2cccnc2)NS(=O)(=O)c2ccc(F)cc2)cc1 (racemic) [Example 123, (RS)-N-(4-(carboxymethyl)phenyl)-2-(4-fluorobenzenesulfonylamino)-3-(pyridin-3-yloxy)propanamide] | 0.31 µM | 2 µM |
| O=C(O)Cc1ccc(NC(=O)C(COc2cccnc2)NS(=O)(=O)c2ccc(Br)cc2)cc1 (racemic) [Example 124, (RS)-2-(4-bromobenzenesulfonylamino)-N-(4-(carboxymethyl)phenyl)-3-(pyridin-3-yloxy)propanamide] | 0.31 µM | 0.13 µM |
| O=C(O)Cc1ccc(NC(=O)C(COc2ccccc2)NS(=O)(=O)c2ccc(Cl)cc2)cc1 (racemic) [Example 129, (RS)-N-(4-(carboxymethyl)phenyl)-2-(4-chlorobenzenesulfonylamino)-3-phenoxypropanamide] | 0.54 µM | 0.72 µM |
| O=C(O)Cc1ccc(NC(=O)C(COc2ccc(Cl)cc2)NS(=O)(=O)c2ccc(Cl)cc2)cc1 (racemic) [Example 130, (RS)-N-(4-(carboxymethyl)phenyl)-2-(4-chlorobenzenesulfonylamino)-3-(4-chlorophenoxy)propanamide] | 1.7 µM | 0.16 µM |
| CSCCC(NS(=O)(=O)c1ccc(Cl)cc1)C(=O)Nc1ccc(CCC(=O)O)cc1 (racemic) [Example 236, (RS)-N-(4-(2-carboxyethyl)phenyl)-2-(4-chlorobenzenesulfonylamino)-4-methylthiobutanamide] |  | 0.42 µM |
| CCCC[C@H](NS(=O)(=O)c1ccc(Br)cc1)C(=O)Nc1ccc(CC(=O)O)cc1 [Example 227, (S)-2-(4-bromobenzenesulfonylamino)-N-(4-(carboxymethyl)phenyl)hexanamide] |  | 0.045 µM |
| CCCC[C@H](NS(=O)(=O)c1ccc(Br)cc1)C(=O)Nc1ccc(CCC(=O)O)cc1 [Example 228, (S)-2-(4-bromobenzenesulfonylamino)-N-(4-(2-carboxyethyl)phenyl)hexanamide] |  | 0.057 µM |
| CCSCC[C@H](NS(=O)(=O)c1ccc(Br)cc1)C(=O)Nc1ccc(CCC(=O)O)cc1 [Example 246, (S)-2-(4-bromobenzenesulfonylamino)-N-(4-(2-carboxyethyl)phenyl)-4-ethylthio-butanamide] |  | 0.034 µM |
| O=C(O)Cc1ccc(NC(=O)[C@@H](Cc2ccccc2)NS(=O)(=O)c2ccc(Br)cc2)cc1 [Example 253, (R)-2-(4-bromobenzenesulfonylamino)-N-(4-(carboxymethyl)phenyl)-3-phenylpropanamide] |  | 1.3 µM |
